Where only a bound is given, the exact number is not on record here.

The target of the assay is T1, KRAS (G12D)-HiBit in AsPc-1-KRAS (G12D)-HiBit-KI cell (Homo sapiens, UniProt P01116, G12D).
T1 construct: host or cells: AsPc-1-KRAS (G12D)-HiBit-KI cells (knock-in line)
T1 sequence (P01116 1-188 isoform P01116-2 G12D): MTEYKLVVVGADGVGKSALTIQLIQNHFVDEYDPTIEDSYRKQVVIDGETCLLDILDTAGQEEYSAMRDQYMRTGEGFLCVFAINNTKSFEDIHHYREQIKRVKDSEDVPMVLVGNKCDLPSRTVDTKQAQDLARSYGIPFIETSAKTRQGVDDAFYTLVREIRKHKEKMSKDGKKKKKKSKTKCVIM
The experiment in a line: G12D HiBit assay. The format is cell-based. The conditions noted are these: 24 hours compound treatment, absolute DC50, read-out: Average PHA DC50. The procedure:
Day 1. Prepared the culture medium for AsPc-1-KRAS (G12D)-HiBit-KI cell (Pharmaron) using RPMI 1640 medium (Gibco, 11875093) with 10% FBS (Gibco, 10099141C) and 1% Penicillin-Streptomycin Liquid (Solarbio, P1400). Cultivated cells in T-75 flasks in a cell culture incubator (Thermo, Model: 371) at 37° C., 5% CO2. Allowed cells to reach approximately 80% confluence before splitting. Rinsed cultivated cells in T-75 flasks with 5 mL PBS (Solarbio, P1020-500). Aspirated off PBS, added 1.5 mL trypsin (Invitrogen, #25300), and incubated at 37° C. for approximately 5 minutes or until the cells detached. Inactivated trypsin by adding excessive serum containing medium. Harvested the cells from flask into cell culture medium and counted the cell number. Seeded AsPc-1-KRAS (G12D)-HiBit-KI cell into 384-well plate (Corning, 3570) (cell density: 5×10^3 cells/well in 50 μL medium) in RPMI 1640 medium and incubated overnight at 37° C. and 5% CO2.
Day 2. Test compounds were dissolved at 0.3 mM in DMSO (Solarbio, D8371) as stock solution. Transferred 45 μL of stock solution to a 384-well plate (Labcyte, 001-14555). Performed 3-fold, 10-points dilution via transferring 15 μL compound into 30 μL DMSO by using TECAN liquid handler (TECAN, Freedom EVO200). The compound plates were spin at room temperature at 1,000 RPM for 1 minute (Eppendorf, 5810R). Transferred 50 nL of diluted compounds from compound source plate into the cell plate by Echo (Labcyte, 550) to achieve final concentrations of 300 nM, 100 nM, 33.3 nM, 11.1 nM, 3.7 nM, 1.23 nM, 0.41 nM, 0.14 nM, 0.046 nM and 0.015 nM, then mixed the cell plate on a plate shaker (Yoning, WZ-4) for 15 seconds at 900 rpm. After compound treatment for 24 hours, removed the plate from incubators and equilibrated at room temperature for 15 minutes. Prepared the HiBit reagent (Promega, N3040) by mixing 10 mL of Nano-Glo®-HiBiT Lytic Buffer with 200 μL of Nano-Glo®-HiBiT Lytic Substrate and 100 μL of LgBiT Protein. Added 20 μL of HiBit reagent into each well of the cell plate and spun the plates at room temperature at 1,000 RPM for 1 minute. Then shook the plates at 600 RPM at room temperature for 20 minutes using a plate shaker (Yoning, WZ-4), and read the luminescence by EnVision (PerkinElmer, 2105-0020).
The inhibition activity was calculated using the following formula: HiBit-G12D level (%)=100%×[Luminescence(Sample)/Mean of Luminescence (HC)] where HC (high control) is obtained from cells treated with 0.1% DMSO only.
Absolute DC50 was calculated by fitting the curve using GraphPad Prism v8.0.2 (analyis 263): Y=Bottom+(100−Bottom)/(1+10^(Log AbsoluteIC50−X)*HillSlope+log((100−Bottom)/(50−Bottom)−1)))
The data are reported in Table 3, wherein “+++”=DC50 less than 100 nM, “++”=DC50 greater than or equal to 100 nM and less than 300 nM; “+”=DC50 greater than or equal to 300 nM.
In general terms: With HiBiT, luminescence reflects the tagged protein that the partner subunit can reach.
Take `CCc1c(F)ccc2cc(O)cc(-c3ncc4c(N5CCCC6(CCO6)C5)nc(OC[C@@]56CCCN5[C@H](COC(=O)N5CCC(OCCCc7cccc8c7n(C)c(=O)n8C7CCC(=O)NC7=O)CC5)CC6)nc4c3F)c12` (stereo partly drawn) [Compound 34]: the DC50 was less than 100 nM.

`C#Cc1c(F)ccc2cc(O)cc(-c3ncc4c(N5CCCC6(CCO6)C5)nc(OC[C@@]56CCCN5[C@H](COC(=O)N5CCC(OCCCc7cccc8c7n(C)c(=O)n8C7CCC(=O)NC7=O)CC5)CC6)nc4c3F)c12` (stereo partly drawn) [Compound 35]: the DC50 is less than 100 nM. With `C#Cc1c(F)ccc2cccc(-c3ncc4c(N5CCCC6(CCO6)C5)nc(OC[C@@]56CCCN5[C@H](COC(=O)N5CCC(OCCCc7cccc8c7n(C)c(=O)n8C7CCC(=O)NC7=O)CC5)CC6)nc4c3F)c12` (stereo partly drawn) [Compound 36], the DC50 was not below 300 nM. As to `C#Cc1c(F)ccc2cccc(-c3ncc4c(N5CC6CCC(C5)N6)nc(OC[C@@]56CCCN5[C@H](COC(=O)N5CCC(OCc7cccc8c7n(C)c(=O)n8C7CCC(=O)NC7=O)CC5)CC6)nc4c3F)c12` (stereo partly drawn) [Compound 37, [(3S,8S)-8-[[4-(3,8-Diazabicyclo[3.2.1]octan-3-yl)-7-(8-ethynyl-7-fluoro-1-naphthyl)-8-fluoro-pyrido[4,3-d]pyrimidin-2-yl]oxymethyl]-1,2,3,5,6,7-hexahydropyrrolizin-3-yl]methyl4-[[1-(2,6-dioxo-3-piperidyl)-3-methyl-2-oxo-benzimidazol-4-yl]methoxy]piperidine-1-carboxylate], the DC50 lay within 100 to 300 nM.

For the molecule `C#Cc1c(F)ccc2cccc(-c3ncc4c(N5CC6CCC(C5)N6)nc(OC[C@@]56CCCN5[C@H](COC(=O)N5CCC(CN7CCC(c8cccc9c8n(C)c(=O)n9C8CCC(=O)NC8=O)CC7)CC5)CC6)nc4c3F)c12` (stereo partly drawn) [Compound 38, [(3S,8S)-8-[[4-(3,8-Diazabicyclo[3.2.1]octan-3-yl)-7-(8-ethynyl-7-fluoro-1-naphthyl)-8-fluoro-pyrido[4,3-d]pyrimidin-2-yl]oxymethyl]-1,2,3,5,6,7-hexahydropyrrolizin-3-yl]methyl4-[[4-[1-(2,6-dioxo-3-piperidyl)-3-methyl-2-oxo-benzimidazol-4-yl]-1-piperidyl]methyl]piperidine-1-carboxylate], the DC50 is less than 100 nM. `C#Cc1c(F)ccc2cccc(-c3ncc4c(N5CC6CCC(C5)N6)nc(OC[C@@]56CCCN5[C@H](COC(=O)NCCCC(=O)N5CCC(c7cccc8c7n(C)c(=O)n8C7CCC(=O)NC7=O)CC5)CC6)nc4c3F)c12` (stereo partly drawn) [Compound 39, [(3S,8S)-8-[[4-(3,8-Diazabicyclo[3.2.1]octan-3-yl)-7-(8-ethynyl-7-fluoro-1-naphthyl)-8-fluoro-pyrido[4,3-d]pyrimidin-2-yl]oxymethyl]-1,2,3,5,6,7-hexahydropyrrolizin-3-yl]methyl N-[4-[4-[1-(2,6-dioxo-3-piperidyl)-3-methyl-2-oxo-benzimidazol-4-yl]-1-piperidyl]-4-oxo-butyl]carbamate]: the DC50 is not below 300 nM.

As to `C#Cc1c(F)ccc2cccc(-c3ncc4c(N5CC6CCC(C5)N6)nc(OC[C@@]56CCCN5[C@H](COC(=O)N5CCC7(CC5)CN(CCCc5cccc8c5n(C)c(=O)n8C5CCC(=O)NC5=O)CCO7)CC6)nc4c3F)c12` (stereo partly drawn) [Compound 40], the DC50 was less than 100 nM. As for `C#Cc1c(F)ccc2cccc(-c3ncc4c(N5CC6CCC(C5)N6)nc(OC[C@@]56CCCN5[C@H](COC(=O)N5CCC(CCCCc7cccc8c7n(C)c(=O)n8C7CCC(=O)NC7=O)CC5)CC6)nc4c3F)c12` (stereo partly drawn) [Compound 41], the DC50 was not below 300 nM. `C#Cc1c(F)ccc2cccc(-c3ncc4c(N5CC6CCC(C5)N6)nc(OC[C@@]56CCCN5[C@H](COC(=O)N5CC(CN7CCN(c8ccc9c(c8)n(C)c(=O)n9C8CCC(=O)NC8=O)CC7)C5)CC6)nc4c3F)c12` (stereo partly drawn) [Compound 42]: the DC50 was less than 100 nM. As to `C#Cc1c(F)ccc2cccc(-c3ncc4c(N5CC6CCC(C5)N6)nc(OC[C@@]56CCCN5[C@H](COC(=O)N5CCC(CCCCc7ccc8c(c7)n(C)c(=O)n8C7CCC(=O)NC7=O)CC5)CC6)nc4c3F)c12` (stereo partly drawn) [Compound 43], the DC50 was not below 300 nM. For `C#Cc1c(F)ccc2cccc(-c3ncc4c(N5CC6CCC(C5)N6)nc(OC[C@@]56CCCN5[C@H](COC(=O)N5CCC(CN7CCC(c8ccc9c(c8)n(C)c(=O)n9C8CCC(=O)NC8=O)CC7)CC5)CC6)nc4c3F)c12` (stereo partly drawn) [Compound 44], the DC50 is less than 100 nM. In the case of `C#Cc1c(F)ccc2cccc(-c3ncc4c(N5CC6CCC(C5)N6)nc(OC[C@@]56CCCN5[C@H](COC(=O)NCCCC(=O)N5CCC(c7ccc8c(c7)n(C)c(=O)n8C7CCC(=O)NC7=O)CC5)CC6)nc4c3F)c12` (stereo partly drawn) [Compound 45], the DC50 is not below 300 nM. `C#Cc1c(F)ccc2cccc(-c3ncc4c(N5CC6CCC(C5)N6)nc(OC[C@@]56CCCN5[C@H](COC(=O)N5CCC7(CC5)CN(CC#Cc5cccc8c5n(C)c(=O)n8C5CCC(=O)NC5=O)CCO7)CC6)nc4c3F)c12` (stereo partly drawn) [Compound 46]: the DC50 is not below 300 nM. On to `C#Cc1c(F)ccc2cccc(-c3ncc4c(N5CC6CCC(C5)N6)nc(OC[C@@]56CCCN5[C@H](COC(=O)N5CCC(CC7CCN(Cc8ccc9c(c8)n(C)c(=O)n9C8CCC(=O)NC8=O)CC7)CC5)CC6)nc4c3F)c12` (stereo partly drawn) [Compound 47], for which the DC50 was less than 100 nM. `C#Cc1c(F)ccc2cccc(-c3ncc4c(N5CC6CCC(C5)N6)nc(OC[C@@]56CCCN5[C@H](COC(=O)N5CCC(CC7CCN(c8cccc9c8n(C)c(=O)n9C8CCC(=O)NC8=O)CC7)CC5)CC6)nc4c3F)c12` (stereo partly drawn) [Compound 48]: the DC50 was not below 300 nM.

For `C#Cc1c(F)ccc2cccc(-c3ncc4c(N5CC6CCC(C5)N6)nc(OC[C@@]56CCCN5[C@H](COC(=O)N5CCC(CCC7CCN(Cc8cccc9c8n(C)c(=O)n9C8CCC(=O)NC8=O)CC7)CC5)CC6)nc4c3F)c12` (stereo partly drawn) [Compound 49], the DC50 is not below 300 nM.

In the case of `C#Cc1c(F)ccc2cccc(-c3ncc4c(N5CC6CCC(C5)N6)nc(OC[C@@]56CCCN5[C@H](COC(=O)N5CCC(OCCC#Cc7ccc8c(c7)n(C)c(=O)n8C7CCC(=O)NC7=O)CC5)CC6)nc4c3F)c12` (stereo partly drawn) [Compound 50], the DC50 is less than 100 nM. The same measure for `C#Cc1c(F)ccc2cccc(-c3ncc4c(N5CC6CCC(C5)N6)nc(OC[C@@]56CCCN5[C@H](COC(=O)N5CCC(C7CCN(Cc8cccc9c8n(C)c(=O)n9C8CCC(=O)NC8=O)CC7)CC5)CC6)nc4c3F)c12` (stereo partly drawn) [Compound 51]: less than 100 nM. Turning to `C#Cc1c(F)ccc2cccc(-c3ncc4c(N5CC6CCC(C5)N6)nc(OC[C@@]56CCCN5[C@H](COC(=O)N5CCC(OC7CCN(Cc8ccc9c(c8)n(C)c(=O)n9C8CCC(=O)NC8=O)CC7)CC5)CC6)nc4c3F)c12` (stereo partly drawn) [Compound 52], the DC50 was less than 100 nM. Regarding `C#Cc1c(F)ccc2cccc(-c3ncc4c(N5CC6CCC(C5)N6)nc(OC[C@@]56CCCN5[C@H](COC(=O)N5CCC(N7CCN(Cc8cccc9c8n(C)c(=O)n9C8CCC(=O)NC8=O)CC7)CC5)CC6)nc4c3F)c12` (stereo partly drawn) [Compound 53, [(3S,8S)-8-[[4-(3,8-diazabicyclo [3.2.1]octan-3-yl)-7-(8-ethynyl-7-fluoro-1-naphthyl)-8-fluoro-pyrido[4,3-d]pyrimidin-2-yl]oxymethyl]-1,2,3,5,6,7-hexahydropyrrolizin-3-yl]methyl4-[4-[[1-(2,6-dioxo-3-piperidyl)-3-methyl-2-oxo-benzimidazol-4-yl]methyl]piperazin-1-yl]piperidine-1-carboxylate], the DC50 was less than 100 nM. The same measure for `C#Cc1c(F)ccc2cccc(-c3ncc4c(N5CC6CCC(C5)N6)nc(OC[C@@]56CCCN5[C@H](COC(=O)N5CCC(OC7CN(Cc8cccc9c8n(C)c(=O)n9C8CCC(=O)NC8=O)C7)CC5)CC6)nc4c3F)c12` (stereo partly drawn) [Compound 54, [(3S,8S)-8-[[4-(3,8-Diazabicyclo[3.2.1]octan-3-yl)-7-(8-ethynyl-7-fluoro-1-naphthyl)-8-fluoro-pyrido[4,3-d]pyrimidin-2-yl]oxymethyl]-1,2,3,5,6,7-hexahydropyrrolizin-3-yl]methyl 4-[1-[[1-(2,6-dioxo-3-piperidyl)-3-methyl-2-oxo-benzimidazol-4-yl]methyl]azetidin-3-yl]oxypiperidine-1-carboxylate]: less than 100 nM.
